The target in one data set is LAO.3. Nature of the data set: Isothermal titration calorimetry of the purified protein with its cognate ligand at 25 °C in SEC running buffer (25 mM sodium phosphate, 500 mM NaCl, pH 7.4), fitted with a one-site binding model. Particulars: SD, n = 3. Here is the method: (§1) Ligands were dissolved in the specific buffer that was used in the size-exclusion chromatography (SEC) run of each protein purification (stored at −20 °C and thawed on the day of use). All protein and ligand samples were degassed and the temperature equilibrated to 25 °C for at least 10 min using a degassing station (TA Instruments). 400 μL of protein samples was loaded into the sample cell of a low volume AffinityITC machine with gold cell (TA Instruments) and ligand solutions were added into the injection syringe (protein and ligand concentrations can be found in Table S5). ITC measurements were performed at 25 °C with 20 injections of 2.5 μL (one initial injection of 0.5 μL was excluded from analysis), an adaptive injection interval, and stirring rate of 125 rpm. Subtractions of constant heat of dilution values for each ligand, peak integration, and fitting with a one-site binding model were done with NanoAnalyze (TA Instruments). The reported errors reflect the standard deviation of three technical replicas.

The target in the next data set is LAO.1. The description is as above. The settings on record: SD, n = 3. As for the experimental part: as §1
The target of a further data set is T1, LAO.0 (Salmonella enterica, UniProt P02911).
T1 construct: gene argT
Described as above. The settings on record: SD, n = 3. As for the experimental part:
as §1

For a further data set, the target named is LAO.4. The data set is described as above. Particulars: SD, n = 3. Here is the method:
as §1

A further data set deals with LAO.2. Described as above. Particulars: SD, n = 3. Here is the method:
as §1

Another data set addresses PotF.0 (Escherichia coli, UniProt P31133). The data set is described as above. Particulars: SD, n = 3. Here is the method:
as §1

The target of another data set is PotF.1 (Escherichia coli, UniProt P31133, A203P/A327P/A339P/E108N/E331D/F129Y/F266Y/F313Y/K122Q/K202N/M131I/N154D/S178A/S252A/S265A/S267T/S326N/T322L/V186I/V264I/V305M/V46I). The description is as above. Particulars: SD, n = 3. As for the experimental part:
as §1

The target in another data set is PotF.3 (Escherichia coli, UniProt P31133, A339P/E108N/E331D/F129Y/F266Y/K202N/N154D/S178A/S252A/S265A/T94S/V186I). The description is as above. The settings on record: SD, n = 3. As for the experimental part: as §1
The target of the next data set is PotF.2. The settings on record: SD, n = 3. As for the experimental part: as §1
The target in a further data set is PotF.4. Particulars: SD, n = 3. As for the experimental part: as §1
A further data set concerns the target TphC.0. In words: Isothermal titration calorimetry of the purified protein with its cognate ligand at 25 °C in SEC running buffer (25 mM sodium phosphate, 500 mM NaCl, pH 7.4), fitted with a one-site binding model. The settings on record: SD, n = 3. As for the experimental part: as §1
The target in the next data set is TphC.3. The description is as above. The settings on record: SD, n = 3. As for the experimental part:
as §1

A further data set has as its target TphC.1. The description is as above. The settings on record: SD, n = 3. As for the experimental part: as §1
The target of a further data set is TphC.2. The description is as above. Particulars: SD, n = 3. Here is the method:
as §1

The next data set concerns the target TphC.4. The description is as above. Particulars: SD, n = 3. As for the experimental part:
as §1

Another data set has as its target MBP.1. The data set is described as above. Particulars: SD, n = 3. As for the experimental part: as §1
The next data set has as its target MBP.2. The description is as above. The settings on record: n = 3. Here is the method: as §1
Another data set deals with MBP.3. The description is as above. The settings on record: SD, n = 3. As for the experimental part: as §1
The next data set has as its target MBP.4. The description is as above. Particulars: SD, n = 3. Here is the method:
as §1

On the set-up of data set [1]: method as in previously published binding constants. The settings on record: wild type PotF; ref previously published binding constants; read-out: binding constant; cited from earlier work.
Data set [2] in a line: Isothermal titration calorimetry, PotF variants with putrescine. The class given is binding. The settings on record: ITC, 25 °C. The source says: Protein Design ID Experimental Protein Ligand target repeat concentration concentration (µM) […]
The nature of data set [3]: CD thermal melt (Tmelt) of apo protein. The class given is physicochemical. The settings on record: CD at 222 nm, 20 to 95 °C, 1 °C/min, apo protein 0.2 mg/mL, pH 7.4, error from fit uncertainty. As for the experimental part:
To remove salts, protein samples were dialyzed overnight against 2 L of CD buffer (25 mM NaH2PO4/Na2HPO4, pH 7.4) using a 10 kDa molecular weight cutoff. Aggregated protein was removed by centrifugation at 15 000g for 5 min using a tabletop centrifuge (Eppendorf 5427R). Next, the protein concentration was adjusted to 0.3 mg/mL and verified photometrically. 200 μL of protein samples were mixed with either 100 μL of CD buffer or 100 μL of ligand solution (300 μM stocks of ligand solubilized in CD buffer) to reach a final concentration of 100 μM for the ligands and 0.2 mg/mL for the protein. CD spectra and thermal melt experiments were obtained on a JASCO J-1500 instrument using a glass cuvette with a 1 mm path length. For CD spectra, the following settings were used: wavelengths 240–190 nm, bandwidth 1 nm, response time 2 s, data pitch 0.1 nm, scanning speed 100 nm/min, and ten accumulations (for buffer controls only one accumulation was used). For Tmelt measurements, the following settings were used: wavelength of 222 nm, temperature range from 20 to 95 °C controlled by a Pelletier AWC100 (Julabo) using a slope of 1 °C/min, a bandwidth of 1 nm, and a response time of 2 s. Raw CD data were normalized by subtraction of the respective buffer data and subsequent conversion of the measured signal in millidegree to mean residue molar ellipticity. To obtain the apparent melting temperature T m, thermal melt data were fit using a sigmoidal equation according to Niklasson et al. The error plotted stems from the fit function uncertainty.

Details of data set [4]: method as in previously published binding constants. The settings on record: wild type LAO; ref previously published binding constants; read-out: binding constant; cited from earlier work.
Data set [5] can be described thus: Isothermal titration calorimetry, LAO variants with L-lysine. In kind it is binding. The settings on record: ITC, 25 °C. From the text:
buffer-lysine 1 - 3 - 300
Supporting Table 5. Protein and ligand concentrations for ITC measurements
On the technique in general: ITC needs no label: the signal is the heat of the interaction.

Read-outs that look alike come from different tables or passages of the source. A value given as a limit tells only on which side of the number the result lay.

Chain of PotF.3 (P31133 27-370 T94S/E108N/F129Y/N154D/S178A/V186I/K202N/S252A/S265A/F266Y/E331D/A339P): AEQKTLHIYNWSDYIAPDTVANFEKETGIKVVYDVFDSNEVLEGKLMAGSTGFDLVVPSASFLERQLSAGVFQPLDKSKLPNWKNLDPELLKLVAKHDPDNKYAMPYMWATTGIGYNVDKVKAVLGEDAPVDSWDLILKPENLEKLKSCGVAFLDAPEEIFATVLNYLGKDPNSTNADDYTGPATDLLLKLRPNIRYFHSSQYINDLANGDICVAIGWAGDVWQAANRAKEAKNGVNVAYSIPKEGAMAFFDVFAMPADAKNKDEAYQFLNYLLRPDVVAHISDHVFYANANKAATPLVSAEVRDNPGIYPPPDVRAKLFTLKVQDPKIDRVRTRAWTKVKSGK
Chain of PotF.1 (P31133 other isoform, or with tags, fused parts or gaps with the stated changes): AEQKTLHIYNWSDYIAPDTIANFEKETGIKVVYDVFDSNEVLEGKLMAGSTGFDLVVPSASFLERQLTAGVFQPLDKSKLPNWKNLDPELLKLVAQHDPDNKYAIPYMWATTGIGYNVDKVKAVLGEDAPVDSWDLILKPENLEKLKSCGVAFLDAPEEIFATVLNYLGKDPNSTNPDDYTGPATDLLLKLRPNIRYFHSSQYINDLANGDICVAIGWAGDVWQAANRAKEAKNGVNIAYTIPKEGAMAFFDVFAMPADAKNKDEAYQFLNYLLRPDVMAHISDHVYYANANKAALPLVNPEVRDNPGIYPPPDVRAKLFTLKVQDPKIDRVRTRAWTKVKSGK

On to `NCCCC[C@H](N)C(=O)O` [L-lysine], for which the Kd was found to be 824 ± 18 nM on LAO.3; 2500 ± 211 nM on LAO.1; 93 ± 35 nM at LAO.0; 150 ± 21 nM at LAO.4; 612 ± 56 nM at LAO.2.

With `NCCCCN` [putrescine], the Kd at PotF.0 turned out to be 42 ± 3 nM; at PotF.1, 479 ± 12 nM; at PotF.3 it was 101 ± 17 nM; at PotF.2, 42 ± 12 nM; on PotF.4, 103 ± 10 nM.

`O=C(O)c1ccc(C(=O)O)cc1` [terephthalic acid]: the Kd at TphC.0 worked out at 1180 ± 250 nM; on TphC.3, 716 ± 91 nM; on TphC.1 it was 5750 ± 709 nM; on TphC.2 it was 627 ± 69 nM; at TphC.4 it was 282 ± 39 nM.

maltose: the Kd at MBP.1 was 1310 ± 293 nM; on MBP.2, below 10000 nM; on MBP.3 it was 450 ± 44 nM; on MBP.4, 2960 ± 675 nM.

B1: PotF.0: wild type putrescine-binding protein PotF, Escherichia coli (strain K12), used as control (protein, UniProt P31133 27-370, looked up)
Putrescine-binding …: AEQKTLHIYNWSDYIAPDTVANFEKETGIKVVYDVFDSNEVLEGKLMAGSTGFDLVVPSASFLERQLTAGVFQPLDKSKLPEWKNLDPELLKLVAKHDPDNKFAMPYMWATTGIGYNVDKVKAVLGENAPVDSWDLILKPENLEKLKSCGVSFLDAPEEVFATVLNYLGKDPNSTKADDYTGPATDLLLKLRPNIRYFHSSQYINDLANGDICVAIGWAGDVWQASNRAKEAKNGVNVSFSIPKEGAMAFFDVFAMPADAKNKDEAYQFLNYLLRPDVVAHISDHVFYANANKAATPLVSAEVRENPGIYPPADVRAKLFTLKVQDPKIDRVRTRAWTKVKSGK
With B1, the Kd in data set [1] was 68 ± 40 nM. Further, in data set [2], the “-TΔS” value was 11.2 ± 0.287 kcal/mol, the ΔG was -10.1 ± 0.048 kcal/mol and the ΔH is -21.2 ± 0.263 kcal/mol. In addition, the “apparent T m” value in data set [3] came out at 63 ± 0.4 °C. In addition, the “apparent T m” value in data set [3] (listed as PotF) came out at 63 °C.

B2: LAO.0: wild type L-lysine/L-arginine/L-ornithine binding protein LAO, Salmonella typhimurium, used as control (protein, UniProt P02911 23-260, looked up)
Lysine/arginine/ornithine-bind …: ALPQTVRIGTDTTYAPFSSKDAKGEFIGFDIDLGNEMCKRMQVKCTWVASDFDALIPSLKAKKIDAIISSLSITDKRQQEIAFSDKLYAADSRLIAAKGSPIQPTLESLKGKHVGVLQGSTQEAYANDNWRTKGVDVVAYANQDLIYSDLTAGRLDAALQDEVAASEGFLKQPAGKEYAFAGPSVKDKKYFGDGTGVGLRKDDTELKAAFDKALTELRQDGTYDKMAKKYFDFNVYGD
Regarding B2, the Kd in [4] was 232 ± 106 nM. Further, the “apparent T m” value in data set [3] was determined as 47 ± 0.1 °C. In addition, in [3] (listed as LAO), the “apparent T m” value was 47 °C. Besides, in data set [5], the “-TΔS” value came out at 3.56 ± 0.382 kcal/mol, the ΔG is -9.61 ± 0.22 kcal/mol and the ΔH was -13.2 ± 0.22 kcal/mol.

The record behind these values is article PMC12814167, “Optimizing Stability in Dynamic Small-Molecule Binding Proteins” (Journal of the American Chemical Society, 2025).
